Data on two molecules can be found in article PMC5021990 (Biochemical and biophysical research communications, 2016).

The target in one assay is FnLpxA (Francisella tularensis, UniProt A0Q7Y0). The conditions noted are these: 20 μM R,S-3-hydroxypalmitoyl-ACP, 100 μM [α-32P]UDP-GlcNAc, 40 mM HEPES pH 7.4, 100 mM NaCl, 30 °C; labelled compound.
Assay [1] deals with Francisella novicida LpxA (UDP-N-acetylglucosamine acyltransferase), C-terminally His6-tagged (Francisella novicida). The experiment in a line: SEC.

On to `CC(=O)N[C@H]1[C@@H](OP(=O)(O)OP(=O)(O)OC[C@H]2O[C@@H](n3ccc(=O)[nH]c3=O)[C@H](O)[C@@H]2O)O[C@H](CO)[C@@H](O)[C@@H]1O` [UDP-GlcNAc], for which, on FnLpxA, the “TLC radioassay of acyl transfer, PhosphorImager” value was “purified FnLpxA transfers a 3-hydroxypalmitoyl group from 3-hydroxypalmitoyl-ACP to the 3-OH of UDP-GlcNAc”.

On to “Francisella novicida LpxA (UDP-N-acetylglucosamine acyltransferase), C-terminally His6-tagged (enzyme)”, for which the stoichiometry N (commonly the number of molecules, sites or subunits per partner or assembly) in assay [1] came out at 3.
